Measured values: PMC10869683, “Structure of recombinant formate dehydrogenase from Methylobacterium extorquens (MeFDH1)” (Scientific Reports, 2024)

Columns and labels:
[1] = target: T1, recombinant MeFDH1 (alpha/beta heterodimer), MeFDH1-β FMN / diaphorase site (Methylorubrum extorquens, UniProt C5ATT6); assay: cryo-EM structure, […] Å; assay type: binding; conditions: FMN site at the center of the beta subunit
T1 construct: gene fdh1B; same complex as P1, site in beta subunit; C-terminal His6 on alpha; expressed in M. extorquens AM1 fdh1 knockout; heterodimer ~169 kDa; with Formate dehydrogenase subunit alpha (tungsten-containing formate dehydrogenase alpha subunit)

[2] = target: T1, recombinant MeFDH1 (alpha/beta heterodimer), MeFDH1-β FMN / diaphorase site; assay: formate oxidation coupled to NAD+ reduction, A340; assay type: biochemical; conditions: 30 mM potassium formate, 0.5 mM NAD+, 50 mM MOPS, 30 °C; pH not given; site in beta inferred by homology
[3] = target: T2, recombinant MeFDH1 (alpha/beta heterodimer), MeFDH1-α active site (Methylorubrum extorquens, UniProt C5ATT7); conditions: 30 mM potassium formate, 0.5 mM NAD+, 50 mM MOPS, 30 °C; pH not given
T2 construct: gene fdh1A
T2 sequence (C5ATT7 1-989): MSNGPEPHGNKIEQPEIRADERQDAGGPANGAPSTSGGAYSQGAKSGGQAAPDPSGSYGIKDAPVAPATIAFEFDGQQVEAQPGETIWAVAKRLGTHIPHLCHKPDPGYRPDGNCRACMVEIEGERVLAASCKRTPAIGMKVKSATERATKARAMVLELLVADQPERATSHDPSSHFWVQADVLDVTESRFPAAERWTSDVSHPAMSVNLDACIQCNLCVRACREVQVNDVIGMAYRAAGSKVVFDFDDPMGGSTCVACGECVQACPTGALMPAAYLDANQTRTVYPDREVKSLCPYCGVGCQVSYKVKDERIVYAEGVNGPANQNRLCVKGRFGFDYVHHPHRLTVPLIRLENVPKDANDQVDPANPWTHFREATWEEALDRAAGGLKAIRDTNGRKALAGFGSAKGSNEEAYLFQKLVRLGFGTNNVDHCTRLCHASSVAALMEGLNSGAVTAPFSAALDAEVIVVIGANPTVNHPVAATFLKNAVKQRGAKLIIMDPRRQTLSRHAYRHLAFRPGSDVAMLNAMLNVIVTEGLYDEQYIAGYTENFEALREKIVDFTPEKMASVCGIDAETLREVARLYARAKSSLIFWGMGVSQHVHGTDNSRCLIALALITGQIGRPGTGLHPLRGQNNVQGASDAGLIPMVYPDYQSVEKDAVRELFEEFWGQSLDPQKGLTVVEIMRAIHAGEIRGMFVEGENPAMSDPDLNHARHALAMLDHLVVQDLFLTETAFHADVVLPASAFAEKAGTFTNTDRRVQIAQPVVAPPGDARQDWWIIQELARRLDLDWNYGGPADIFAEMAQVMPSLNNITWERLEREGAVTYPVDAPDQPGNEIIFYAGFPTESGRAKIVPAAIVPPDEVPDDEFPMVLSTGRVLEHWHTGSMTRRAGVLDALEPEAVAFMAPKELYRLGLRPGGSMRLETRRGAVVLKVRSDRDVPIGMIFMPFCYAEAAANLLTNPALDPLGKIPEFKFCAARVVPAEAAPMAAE
T2 sequence (C5ATT6 1-572 partner): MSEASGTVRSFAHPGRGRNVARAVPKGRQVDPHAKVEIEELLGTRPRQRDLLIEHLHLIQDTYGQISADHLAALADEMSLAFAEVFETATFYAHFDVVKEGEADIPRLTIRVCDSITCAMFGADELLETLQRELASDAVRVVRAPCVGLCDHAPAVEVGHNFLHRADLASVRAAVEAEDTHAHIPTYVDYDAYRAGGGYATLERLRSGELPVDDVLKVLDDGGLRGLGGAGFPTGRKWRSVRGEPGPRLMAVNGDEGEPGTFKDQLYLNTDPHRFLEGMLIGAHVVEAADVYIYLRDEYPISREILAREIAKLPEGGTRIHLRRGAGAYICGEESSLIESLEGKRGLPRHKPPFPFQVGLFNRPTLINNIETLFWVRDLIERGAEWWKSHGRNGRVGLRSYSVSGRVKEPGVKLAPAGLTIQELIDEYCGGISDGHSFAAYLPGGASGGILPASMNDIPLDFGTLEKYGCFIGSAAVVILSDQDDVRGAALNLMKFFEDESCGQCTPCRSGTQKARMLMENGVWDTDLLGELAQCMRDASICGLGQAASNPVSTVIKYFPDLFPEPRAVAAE

Cc1cc2nc3c(=O)[nH]c(=O)nc-3n(C[C@H](O)[C@H](O)[C@H](O)COP(=O)(O)O)c2cc1C [FMN]
cryo-EM structure, 2.8 Å [1]: FMN is coordinated at the center of the MeFDH1-β subunit

NC(=O)c1ccc[n+]([C@@H]2O[C@H](COP(=O)(O)OP(=O)(O)OC[C@H]3O[C@@H](n4cnc5c(N)ncnc54)[C@H](O)[C@@H]3O)[C@@H](O)[C@H]2O)c1 [NAD^+]
formate oxidation coupled to NAD+ reduction, A340 [2]: measuring its formate oxidation reaction coupled with NAD^+ reduction

O=CO [formate]
formate oxidation coupled to NAD+ reduction, A340 [3]: measuring its formate oxidation reaction coupled with NAD^+ reduction
